# How the values were obtained:
# JAK V617F = JAK V617F (Homo sapiens, UniProt O60674, V617F); details: in vitro; cited from earlier work
# DU145 = DU145 cell line; cited from earlier work
# [1] = Stability in humidity chamber 40° C./75% R.H. (XRPD, HPLC); format: physicochemical
# Description: After 2 days, the solids were isolated by filtration under vacuum at RT to be characterised by XRPD analysis. Each new crystalline solid phase detected was characterised by ^1H NMR and TGA-DSC analyses in order to determine if salt formation had occurred and whether the material was a solvate. At this stage, each salt identified was then analysed by HPLC to determine the chemical purity prior to being stored in the humidity chamber (40° C./75% R.H.) to assess its stability.
# JAK2 = JAK2 (Homo sapiens, UniProt O60674); details: in vitro; cited from earlier work
# HEL92.1.7 = HEL92.1.7 cell line; cited from earlier work
# FLT3 = target: T1, FLT3 (Homo sapiens, UniProt P36888); details: in vitro; cited from earlier work
# T1 sequence (P36888 27-993): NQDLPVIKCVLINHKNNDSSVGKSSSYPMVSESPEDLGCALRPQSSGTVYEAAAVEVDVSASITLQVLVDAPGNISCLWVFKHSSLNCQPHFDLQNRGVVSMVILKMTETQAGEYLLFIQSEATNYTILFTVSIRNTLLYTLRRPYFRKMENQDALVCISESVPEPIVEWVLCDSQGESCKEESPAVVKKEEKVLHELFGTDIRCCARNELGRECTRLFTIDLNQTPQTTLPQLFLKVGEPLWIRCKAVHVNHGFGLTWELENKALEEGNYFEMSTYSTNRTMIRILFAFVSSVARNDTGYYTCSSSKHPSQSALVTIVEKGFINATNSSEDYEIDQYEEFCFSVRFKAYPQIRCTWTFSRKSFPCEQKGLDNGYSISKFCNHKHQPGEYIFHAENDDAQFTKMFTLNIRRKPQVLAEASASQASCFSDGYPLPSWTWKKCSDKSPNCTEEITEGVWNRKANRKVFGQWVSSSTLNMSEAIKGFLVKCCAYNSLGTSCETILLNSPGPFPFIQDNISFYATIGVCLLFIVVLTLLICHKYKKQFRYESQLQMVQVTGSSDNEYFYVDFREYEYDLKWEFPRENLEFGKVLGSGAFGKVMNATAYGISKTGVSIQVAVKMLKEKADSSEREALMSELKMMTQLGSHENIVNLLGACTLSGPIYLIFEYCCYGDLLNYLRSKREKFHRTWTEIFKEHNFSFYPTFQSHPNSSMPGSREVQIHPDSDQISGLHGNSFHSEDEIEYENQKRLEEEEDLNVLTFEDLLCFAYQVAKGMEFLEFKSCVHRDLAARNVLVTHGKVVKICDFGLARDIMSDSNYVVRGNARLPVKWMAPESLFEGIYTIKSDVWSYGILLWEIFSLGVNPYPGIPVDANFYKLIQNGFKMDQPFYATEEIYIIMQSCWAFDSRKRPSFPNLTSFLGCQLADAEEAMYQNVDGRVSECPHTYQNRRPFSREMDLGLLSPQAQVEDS
# [2] = Log P determination by potentiometric titration; format: physicochemical
# From the text: Data were collected by potentiometric titration on a Sirius GlpKa instrument using three ratios of octanol:ionic-strength adjusted (ISA) water to generate Log P, Log Pion, and Log D values. The data were refined using Refinement Pro software v2.2. Prediction of Log P values was made using ACD v12 software.
# [3] = Thermodynamic aqueous solubility; format: physicochemical
# Description: Aqueous solubility was determined by suspending sufficient compound in water to give a maximum final concentration of 210 mg·ml^−1 of the parent free-form of the compound. The suspension was equilibrated at 25° C. for 24 hours then the pH was measured. The suspension was then filtered through a glass fibre C filter into a 96 well plate. The filtrate was then diluted by a factor of 101. Quantitation was by HPLC with reference to a standard solution of approximately 0.1 mg·ml^−1. in DMSO. Different volumes of the standard, diluted and undiluted sample solutions were injected. The solubility was calculated using the peak areas determined by integration of the peak found at the same retention time as the principal peak in the standard injection.
# Analysis was performed on an Agilent HP1 100 series system equipped with a diode array detector and using ChemStation software vB.02.01-SR1.
# HL60 = HL60 cell line; cited from earlier work
# MV4-11 = MV4-11 cell line; cited from earlier work
# [4] = Gravimetric Vapour Sorption (GVS) at 25° C.; format: physicochemical
# Description: Sorption isotherms were obtained using a SMS DVS Intrinsic moisture sorption analyser, controlled by SMS Analysis Suite software. The sample temperature was maintained at 25° C. by the instrument controls. The humidity was controlled by mixing streams of dry and wet nitrogen, with a total flow rate of 200 ml.min^−1. The relative humidity was measured by a calibrated Rotronic probe (dynamic range of 1.0-100% RH), located near the sample. The weight change, (mass relaxation) of the sample as a function of % RH was constantly monitored by the microbalance (accuracy ±0.005 mg). Typically 5-20 mg of sample was placed in a tared mesh stainless steel basket under ambient conditions. The sample was loaded and unloaded at 40% RH and 25° C. (typical room conditions). A moisture sorption isotherm was performed as outlined below (2 scans giving 1 complete cycle). The standard isotherm was performed at 25° C. at 10% RH intervals over a 0.5-90% RH range. The sample was recovered after completion of the isotherm and re-analysed by XRPD.
# Colo205 = Colo205 cell line; cited from earlier work
# Chain of JAK V617F (O60674 whole entry V617F): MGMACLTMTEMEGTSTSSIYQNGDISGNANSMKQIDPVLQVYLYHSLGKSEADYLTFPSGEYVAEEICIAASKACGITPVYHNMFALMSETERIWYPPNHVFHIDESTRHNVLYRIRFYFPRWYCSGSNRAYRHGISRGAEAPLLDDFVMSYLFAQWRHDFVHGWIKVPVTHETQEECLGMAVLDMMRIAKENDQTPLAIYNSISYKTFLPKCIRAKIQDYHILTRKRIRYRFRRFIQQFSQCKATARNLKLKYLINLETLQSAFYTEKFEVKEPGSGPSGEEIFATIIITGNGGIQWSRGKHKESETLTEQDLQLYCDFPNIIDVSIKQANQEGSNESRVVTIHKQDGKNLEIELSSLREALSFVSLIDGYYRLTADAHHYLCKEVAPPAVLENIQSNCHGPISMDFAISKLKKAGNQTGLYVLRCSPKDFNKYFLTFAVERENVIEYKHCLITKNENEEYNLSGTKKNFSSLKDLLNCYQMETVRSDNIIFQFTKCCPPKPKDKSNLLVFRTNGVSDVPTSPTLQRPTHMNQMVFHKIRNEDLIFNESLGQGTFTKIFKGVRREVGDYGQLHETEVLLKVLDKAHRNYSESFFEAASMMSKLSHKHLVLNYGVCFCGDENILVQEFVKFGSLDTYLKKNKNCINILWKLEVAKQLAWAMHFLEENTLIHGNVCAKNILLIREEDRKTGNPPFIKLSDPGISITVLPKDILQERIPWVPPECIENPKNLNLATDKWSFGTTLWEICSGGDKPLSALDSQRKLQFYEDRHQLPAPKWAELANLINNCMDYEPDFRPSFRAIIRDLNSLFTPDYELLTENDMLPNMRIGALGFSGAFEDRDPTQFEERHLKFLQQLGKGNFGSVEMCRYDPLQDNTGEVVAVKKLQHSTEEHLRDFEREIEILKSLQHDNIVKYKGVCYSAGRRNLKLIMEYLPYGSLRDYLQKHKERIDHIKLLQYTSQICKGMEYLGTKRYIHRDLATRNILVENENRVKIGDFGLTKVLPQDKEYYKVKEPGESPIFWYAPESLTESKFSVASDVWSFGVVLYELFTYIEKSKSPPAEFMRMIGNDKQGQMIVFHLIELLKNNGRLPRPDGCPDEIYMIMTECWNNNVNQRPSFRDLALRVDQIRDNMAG
# Chain of JAK2 (O60674 whole entry): as the sequence (O60674 whole entry V617F) above, with F617V counted along it
smiles,measurement,setting,value
"CN1C/C=C/CCOc2cccc(c2)-c2ccnc(n2)Nc2cccc(c2)C1 [Compound I, 14-methyl-20-oxa-5,7,14,27-tetraazatetracyclo-[19.3.1.12,6.18,12]heptacosa-1(25),2,4,6,8,10,12(26),16,21,23-decaene]",IC50,JAK V617F,< 1 µM
same,GI50,DU145,< 1 µM
same,XRPD stability (40° C./75% R.H.),[1]; 6 weeks,No changes were observed in the humidity
same,HPLC Purity post stability (40° C./75% R.H.),[1]; after 6 weeks in the humidity chamber,purity of Compound I was measured at 97.0% area
same,IC50,JAK2,< 1 µM
same,GI50,HEL92.1.7,< 1 µM
same,IC50,FLT3,< 1 µM
same,logD,"[2]; octanol/ionic-strength adjusted (ISA) water, pH 7.4, read-out: Measured LogD7.4",3.34
same,logP,"[2]; octanol/ionic-strength adjusted (ISA) water, octanol:ISA water, read-out: Measured LogP",4.72
same,Measured LogPion,[2]; octanol:ISA water,1.14
same,solubility at 24 h,"[3]; 25 °C, thermodynamic from solid, water",< 1 µg/mL
same,final pH,[3]; pH of the aqueous suspension after equilibration,8.9
same,aqueous solubility,"[3]; water, 25° C., 24 hours",< 1 µg/mL
same,GI50,HL60,< 1 µM
same,GI50,MV4-11,< 1 µM
same,changes in the XRPD pattern after the GVS experiment,[4],between 0 and 90% relative humidity. No
same,hydration phenomenon in GVS,[4],GVS analysis was carried out at 25 °C No
same,GI50,Colo205,< 1 µM

# From US9120815B2, “Solid state forms of macrocyclic kinase inhibitors” (Tragara Pharmaceuticals, Inc., priority 2010, dated 2015)
